From patent US9937204B2 (priority 2008, dated 2018)

Experiments:
Candida species = assay: Time-kill assay, all species together; type: cell-based; conditions: chlorhexidine gluconate concentrations tested (0.015-0.12%); within one minute of exposure
Method: Following exposure, 100 μl aliquots were diluted 50% with 0.85% saline and plated onto potato dextrose agar plates. The aliquots were allowed to dry and then were streaked to remove the yeast from the compound. The plates were incubated at 35° C. for 24 hours. Colony counts were taken and were compared to initial inoculum. The same test was done treating the four Candida species with chlorhexidine gluconate at concentrations ranging from 0.015-0.12%. Chlorhexidine gluconate at concentration 0.12% is commonly prescribed to patients with oral disease.

non-albicans isolates = conditions: out of 100 non-albicans isolates from HIV patients with thrush; cited from earlier work

N=C(NCCCCCCNC(=N)NC(=N)Nc1ccc(Cl)cc1)NC(=N)Nc1ccc(Cl)cc1.O=C(O)[C@H](O)[C@@H](O)[C@H](O)[C@H](O)CO.O=C(O)[C@H](O)[C@@H](O)[C@H](O)[C@H](O)CO [chlorhexidine gluconate, Chlorhexidine gluconate]
Time-kill result in words (colony count) (Candida species): did not reduce the colony count

OC(Cn1cncn1)(Cn1cncn1)c1ccc(F)cc1F [fluconazole]
Number of isolates resistant (non-albicans isolates): 88
